Legend:
[1] = test system: myocardial ischemia-reperfusion injury in mice; assay: Speckle tracking echocardiography in murine myocardial ischemia-reperfusion injury; format: in vivo, mouse (C57BL/6); details: 30 min ischemia, 24 h reperfusion; 25 mg/kg/12 h intraperitoneal; vs vehicle
Experimental: Cardiac function was assessed by transthoracic echocardiography using the VisualSonics Vevo F2 system (VisualSonics, Toronto, ON). Sedation was induced by 3% isoflurane and maintained at 0.5% isoflurane during the procedure, during which the animals were placed on a heated table under a lamp at approximately 37 °C. Parasternal long axis (PSLAX) and short axis (SAX) images were recorded and then analyzed on a separate workstation with VevoLab software (Vevo 2100, v1.6, Visualsonic, Toronto, Canada). From the M-mode images, left ventricular cavity size for systole and diastole (LV dia;s, LV dia;d, LV Vol;s and LV Vol;d) were measured. Heart rate (HR), stroke volume (SV), and the echocardiographic calculation for fractional shortening (FS), ejection fraction (EF) and cardiac output (CO) were obtained using the Vevo software. Treatment and control groups were analyzed on the same day by the same technician in order to minimize variation. For VevoStrain analysis, B-mode images of 300 frames at greater than 200 frames/second were used.
The myocardial ischemia/reperfusion surgical protocol was applied as follows. Mice were anesthetized with 2% isoflurane inhalation until anesthesia was achieved. The animals' body temperature was maintained at 37 °C throughout the surgical procedure using a heating pad. A tracheal tube was placed via tracheal intubation and the respiration rate was set at 150 strokes/min with a tidal volume of 200 μL, using Minivent ventilator for mice (Model 845, Harvard Apparatus). A 1.2 cm incision was made over the left chest. After retraction of the pectoral major and minor muscles, the fourth intercostal space was exposed. […] The left anterior descending coronary artery (LAD) was then located, sutured, and ligated at a site 3-4 mm distal to the origin of the artery under the left atrium using a 6-0 silk suture. The heart was allowed to stabilize for 15 min and right after, ischemia was induced by tightening the suture against a small piece of polyethylene tube. At the end of the 30-minute ischemia period, the ligature was released for the induction of reperfusion, and then the manual evacuation of air and closure of muscle and skin were performed. The mouse was then monitored during the recovery period, which was generally completed within 3 to 5 minutes. Sustain-released buprenorphine (BupSR, 0.5 mg/kg body weight) was provided by subcutaneous injection. Mice were then left to recover until the end of the reperfusion (2 hours, 12 hours, 24 hours, or 4 weeks). The sham group underwent the same surgical procedure except that the LAD was not occluded.
To explore whether KLF5 inhibition holds therapeutic potential against myocardial I/R injury, WT mice were subjected to 30 minutes of ischemia, followed by 24 hours of reperfusion while being treated with a pharmacological KLF5 inhibitor, namely ML264. ML264 (25 mg/kg/12 h) was dissolved in 10% DMSO, 10% Tween 80, and 80% normal saline, and was administered by intraperitoneal injection in mice.
A first dose of ML264 was administered five minutes before the reopening of the coronary artery, due to the clinical application that this time point holds, as well as previous reports about the importance of this time point regarding the pharmacological possibilities for the cardioprotection against I/R injury. 2D echocardiography was performed after 24 hours of reperfusion.

[2] = test system: Col3a1; assay: Col3a1 mRNA in chronic model of I/R injury (real-time PCR); format: in vivo, mouse (C57BL/6); details: 4 weeks post-I/R; vs IR group treated with vehicle
Experimental: The myocardial ischemia/reperfusion surgical protocol was applied as follows. Mice were anesthetized with 2% isoflurane inhalation until anesthesia was achieved. The animals' body temperature was maintained at 37 °C throughout the surgical procedure using a heating pad. A tracheal tube was placed via tracheal intubation and the respiration rate was set at 150 strokes/min with a tidal volume of 200 μL, using Minivent ventilator for mice (Model 845, Harvard Apparatus). A 1.2 cm incision was made over the left chest. After retraction of the pectoral major and minor muscles, the fourth intercostal space was exposed. […] The mouse was then monitored during the recovery period, which was generally completed within 3 to 5 minutes. […]
Total RNA was purified from heart tissue using the TRIzol reagent according to the instructions of the manufacturer (ThermoFischer Scientific, Cat. No.: 15596018). cDNA synthesis was performed using the Applied Biosystems High Capacity cDNA Reverse Transcription Kit (ThermoFischer Scientific, Cat. No.: 4368814) from 500 ng RNA, which had been treated with DNAase I (ThermoFischer Scientific, Cat. No.: 18068015). Quantitative real-time PCR was performed with the SYBR Select Master Mix (ThermoFischer Scientific, Cat. No.: 4472903) using the manufacturer's recommendations. […]

SMILES: CN(C(=O)CNC(=O)/C=C/c1cccc(Cl)c1)C1CCS(=O)(=O)CC1 [ML264]
- global circumferential strain [1]: significant increase
- lateral wall circumferential strain [1]: significant increase
- lateral wall circumferential strain rate [1]: significant increase
- lateral wall radial strain [1]: significant increase
- lateral wall radial strain rate [1]: significant increase
- mRNA levels of Col3a1 [2]: decreased
